The record followed here is ChEMBL document CHEMBL6134869, “Silaproline-bearing nirmatrelvir derivatives are potent inhibitors of the SARS-CoV-2 main protease highlighting the value of silicon-derivatives in structure-activity-relationship studies” (Eur J Med Chem, 2025).

The nature of data set [1]: Inhibition of recombinant SARS-CoV-2 main protease using ALNDFSNSGSDVLYQPPQTSITSAVLQSGFRKMAFPS-NH2 as substrate preincubated for 15 mins followed by substrate addition and measured after 30 mins by Solid phase extraction coupled with MS analysis. Set-up: species or system Severe acute respiratory syndrome coronavirus 2.
The test system of a further data set is SARS-CoV-2. Description: Antiviral activity against SARS-CoV-2 MT007544.1 infected in African green monkey Vero E6 cells pre infected with virus for 1 hrs followed by incubation with cells for 2 hrs and measured after 20 hrs by ELISPOT reader based analysis. It is filed as functional, organism-based. The conditions noted are these: Severe acute respiratory syndrome coronavirus 2, MT007544.1, Vero C1008.

A further data set concerns Vero C1008. Description: Cytotoxicity against African green monkey Vero E6 cells. The conditions noted are these: chlorocebus sabaeus. The class given is toxicity, cell-based.
Data set [2] has as its system Severe acute respiratory syndrome coronavirus 2. As to the kind of experiment: Inhibition of recombinant SARS-CoV-2 main protease assessed as Kinact/Ki using ALNDFSNSGSDVLYQPPQTSITSAVLQSGFRKMAFPS-NH2 as substrate preincubated for 15 mins followed by substrate addition and measured after 30 mins by Solid phase extraction coupled with MS analysis. Conditions: time 45.0 min.

With `COC(=O)N[C@H](C(=O)N1CC(C)(C)C[C@H]1C(=O)N[C@H](C#N)C[C@@H]1CCNC1=O)C(C)(C)C`, the half-maximal inhibitory concentration (IC50) in data set [1] came to 30 nM. In the data set on SARS-CoV-2, the EC50 is greater than 50000 nM. Besides, the Activity result in the data set with Vero C1008 is “Non-toxic”.
Regarding `COC(=O)N[C@H](C(=O)N1C[Si](C)(C)C[C@H]1C(=O)N[C@H](C#Cc1ccccc1)C[C@@H]1CCNC1=O)C(C)(C)C`, in data set [1], the IC50 was greater than 50000 nM. The same molecule showed an EC50 with SARS-CoV-2 greater than 50000 nM.
In the case of `CC(C)(C)[C@H](NC(=O)C(F)(F)F)C(=O)N1C[Si](C)(C)C[C@H]1C(=O)N[C@H](C#N)C[C@@H]1CCNC1=O`, in data set [1], the IC50 was 41 nM. This molecule registered an EC50 in the data set on SARS-CoV-2 of 24000 nM. Besides, the Activity result in the data set with Vero C1008 was “Non-toxic”.
Consider `C#C[C@H](C[C@@H]1CCNC1=O)NC(=O)[C@@H]1[C@@H]2[C@H](CN1C(=O)[C@@H](NC(=O)C(F)(F)F)C(C)(C)C)C2(C)C`, for which the K in data set [2] amounted to 597 M⁻¹ s⁻¹.
Take `C#C[C@H](C[C@@H]1CCNC1=O)NC(=O)[C@@H]1CC(C)(C)CN1C(=O)[C@@H](NC(=O)OC)C(C)(C)C`: in data set [1], the IC50 is 320 nM. The molecule further registered an EC50 in the data set on SARS-CoV-2 greater than 50000 nM.
On to `C#C[C@H](C[C@@H]1CCNC1=O)NC(=O)[C@@H]1C[Si](C)(C)CN1C(=O)[C@@H](NC(=O)OC)C(C)(C)C`, for which the IC50 in data set [1] stood at 340 nM. For the same molecule, the EC50 with SARS-CoV-2 was greater than 50000 nM. The K in data set [2] was found to be 3640 M⁻¹ s⁻¹.
In the case of `COC(=O)N[C@H](C(=O)N1C[Si](C)(C)C[C@H]1C(=O)N[C@H](C#N)C[C@@H]1CCNC1=O)C(C)(C)C`, the IC50 in data set [1] was 59 nM. In addition, the EC50 in the data set on SARS-CoV-2 was greater than 50000 nM. For the same molecule, the Activity result in the data set on Vero C1008 is recorded as “Non-toxic”.
On to `COC(=O)N[C@H](C(=O)N1C[Si](C)(C)C[C@H]1C(=O)N[C@H](C#N)C[C@@H]1CCNC1=O)C1CCCCC1`, for which the IC50 in data set [1] was found to be 113 nM.
On to `CC(C)(C)[C@H](NC(=O)C(F)(F)F)C(=O)N1C[C@H]2[C@@H]([C@H]1C(=O)N[C@H](C#N)C[C@@H]1CCNC1=O)C2(C)C` [NIRMATRELVIR], for which the Activity entry with Vero C1008 was “Non-toxic”.
In the case of `C#C[C@H](C[C@@H]1CCNC1=O)NC(=O)[C@@H]1C[Si](C)(C)CN1C(=O)[C@@H](NC(=O)C(F)(F)F)C(C)(C)C`, the IC50 in data set [1] was 280 nM. The EC50 in the data set on SARS-CoV-2 was 46000 nM.
